This note sets out measurements from patent US11213548B2, “Modulatable switch for selection of donor modified cells” (CSL Behring Gene Therapy, Inc., priority 2017, dated 2022).

Format in all cases: cell-based
The test system of experiment [1] is K562 cells. Kind of experiment: Negative selection with MTX for K562 cells transduced with different lentiviral vector designs. The method, then: K562 cells were transduced with either TL20cw-GFP virus soup at dilution factor of 16, TL2Ocw-Ubc/GFP-7SK/sh734 (one sequentially encoding GFP and a shRNA designed to knockdown HPRT) virus soup at dilution factor of 16 and TL2Ocw-7SK/sh734-UBC/GFP (one sequentially encoding a shRNA designed to knockdown HPRT and GFP) virus soup at dilution factor of 16, respectively (see FIG. 13). All cells were cultured with medium containing 0.3 uM of MTX 3 days later. Also shown in FIG. 13 are K562 cells which were transduced by TL20cw-7SK/sh734-UBC/GFP (one encoding a nucleic acid encoding a shRNA designed to knockdown HPRT) virus soup at dilution factor of 1024 one month earlier and where GFP-sh734-transduced cells were positively selected with 300 nM of 6TG 6-TG was selection during that time to reach more than 90% of GFP+ population. […] The relative sh734 expression per VCN for sh734-GFP-transduced cells and GFP-sh73-transduced cells were measured.

In experiment [2] the test system is CEM cells. Kind of experiment: Negative selection with MTX or MPA of transduced or transfected CEM cells. The conditions noted are these: day 0 to day 14; for GFP population of transduced cells under treatment: CEM experiment (K562 in the source), steady for untreated group.
In experiment [3] the test system is K562 cells. Kind of experiment: Negative selection with MTX of transduced or transfected K562 cells. The conditions noted are these: 0.3 uM MTX, day 0 to day 14. The method, then:
Transduced or transfected K562 cells (such as those from Example 6) were cultured with or without MTX from day 0 to day 14. The medium was refreshed every 3 to 4 days. GFP was analyzed on flow machine and InDel % was analyzed by T7E1 assay. […] FIG. 11B illustrates that the transfected K562 cells were eliminated under treatment with 0.3 uM of MTX at a faster pace as compared with the HPRT-KD population.

In experiment [4] the test system is CEM cells. Kind of experiment: Positive selection with 6TG of HPRT knockdown / knockout CEM cells (ex vivo). The method, then: CEM cells were transduced with a vector including a nucleic acid sequence designed to knockdown HPRT and a nucleic acid sequence encoding the green fluorescent protein or transfected with a nanocapsule including CRISPR/Cas9 and a sgRNA to HPRT at day 0. 6-TG was added into the medium from day 3 to day 17. The medium was refreshed every 3 to 4 days. GFP as analyzed on flow machine and InDel % is analyzed by T7E1 assay. FIG. 10A illustrates that the GFP+ population of transduced […] cells increased from day 3 to day 17 under treatment of 6TG while GFP+ population was almost steady without 6-TG. […] It should be noted that 6TG selection process occurred faster on HPRT knockout cells rather than HPRT knockdown cells (MOI=1) at the same concentration of 6TG from day 3 to day 17.

Experiment [5] deals with K562 cells. Description: Positive selection with 6TG of HPRT knockdown / knockout K562 cells (ex vivo). The method, then: K562 cells were transduced with a vector including a nucleic acid sequence designed to knockdown HPRT and a nucleic acid sequence encoding the green fluorescent protein (GFP) (MOI=1/2/5); or were transfected with a nanocapsule including CRISPR/Cas9 and a sgRNA to HPRT (100 ng/5×10^4 cells) at day zero (0). 6-TG was added into the medium from day 3 through day 14. The medium was refreshed every 3 to 4 days. GFP was analyzed on flow machine and InDel % as analyzed with T7E1 assay. FIG. 9A illustrates that the GFP+ population of transduced K562 cells increased from day 3 to day 14 under treatment of 6TG; while the GFP+ population was almost steady without 6-TG treatment. […] It should be noted that 6TG selection process occurred much faster on HPRT knockout cells as compared with the HPRT knockdown cells (MOI=1) at the same concentration of 300 nM of 6TG from day 3 to day 14. The difference between knockdown and knockout could be explained by some level of residual HPRT by the RNAi knockdown approach as compared with the full elimination of HPRT by the knockout approach. Therefore, HPRT-knockout cells were believed to have a much higher tolerance against 6TG and are believed to grow much faster at higher dosages of 6TG (900 nM) compared with HPRT-knockdown cells.

`CN(Cc1cnc2nc(N)nc(N)c2n1)c1ccc(C(=O)N[C@@H](CCC(=O)O)C(=O)O)cc1` [MTX, methotrexate]: in the experiment on K562 cells [1] (0.3 uM MTX, sh734-high-expression versus sh734-low-expression lentiviral vector), the “Deselection of transduced K562 cells by methotrexate” value is listed as “could only deselect cells transduced with sh734-high-expression lentiviral vector”. Further, in the experiment with CEM cells [2] (0.3 uM MTX), the “GFP population of transduced cells under treatment” value is reported as “decreased” and the “HPRT knockout population of CEM cells under treatment” value was “eliminated at a faster pace”. The “GFP population of transduced K562 cells under treatment of MTX” value in the experiment on K562 cells [3] (HPRT knockdown, steady without MTX) is “decreased”. In addition, in the experiment with K562 cells [3] (faster pace than HPRT-KD population), the “Transfected (HPRT knockout) K562 cells under treatment with MTX” value is reported as “eliminated”.

On to `Nc1nc2nc[nH]c2c(=S)[nH]1` [6TG, 6-thioguanine], for which the “GFP+ population reached by positive selection with 6TG” value in the experiment with K562 cells [1] (300 nM 6TG, K562 transduced at dilution factor of 1024 one month earlier) is given as “more than 90%”. In addition, in the experiment on CEM cells [4] (900 nM 6TG compared with 300/600 nM, day 3 to 17), the “Speed of selection of HPRT knockout CEM cells, higher dosage versus 300/600 nM of 6TG” value is “faster selection”. Moreover, the “GFP+ population of transduced cells under treatment of 6TG” value with CEM cells [4] (CEM experiment (K562 in the source), HPRT knockdown vector with GFP, 6-TG day 3 to day 17, almost steady without 6-TG) is listed as “increased”. Moreover, the “Speed of 6TG selection on HPRT knockout cells compared with HPRT knockdown cells (MOI=1)” value is “faster” with CEM cells [4] (CEM, same concentration of 6TG, day 3 to day 17) and “much faster” in the experiment on K562 cells [5] (K562, 300 nM 6TG, day 3 to day 14). In the experiment with CEM cells [4] (CRISPR/Cas9 + sgRNA to HPRT nanocapsule, day 3 to 17, InDel % by T7E1 assay), the “HPRT knockout population of CEM cells under treatment of 6TG” value is given as “increased”. Moreover, the “Speed of selection of HPRT knockout K562 cells, higher dosage versus 300/600 nM of 6TG” value with K562 cells [5] (900 nM 6TG compared with 300/600 nM, day 3 to 14) is reported as “faster selection”. The “HPRT knockout population of K562 cells under treatment of 6TG” value in the experiment with K562 cells [5] (CRISPR/Cas9 + sgRNA to HPRT nanocapsule, day 3 to 14, InDel % by T7E1 assay) is listed as “increased”. In addition, the “GFP+ population of transduced K562 cells under treatment of 6TG” value in the experiment with K562 cells [5] (HPRT knockdown vector with GFP, MOI=1/2/5, 6-TG in medium day 3 to day 14, flow, almost steady without 6-TG) is on record as “increased”.

Take `COc1c(C)c2c(c(O)c1C/C=C(\C)CCC(=O)O)C(=O)OC2` [MPA, mycophenolic acid]: the “GFP population of transduced cells under treatment” value with CEM cells [2] (1 uM MPA) and in the experiment on CEM cells [2] (10 uM MPA) was “decreased” throughout. The “HPRT knockout population of CEM cells under treatment” value in the experiment with CEM cells [2] (1 uM MPA) and with CEM cells [2] (10 uM MPA) was “eliminated at a faster pace” in each case.
